Values after ≈ are worked out from the molar mass of the structure shown.

The results in this text go back to ChEMBL document CHEMBL3739399, “Discovery of Indazole Derivatives as a Novel Class of Bacterial Gyrase B Inhibitors” (ACS Med Chem Lett, 2015).

Data set [1] deals with Streptococcus pneumoniae. In words: Antibacterial activity against Streptococcus pneumoniae 402 infected in sc dosed mouse assessed as reduction in 3 log CFU in lung compound administered as BID for 1 day measured 24 hrs after last dose. It is filed as functional.
Data set [2] in a line: Half-life in mouse at 2 mg/kg, iv by LC-MS/MS analysis. It is filed as ADME, organism-based. The conditions noted are these: in vivo.
Data set [3] concerns Mus musculus. In words: Dose-normalized AUC in mouse at 2 mg/kg, iv by LC-MS/MS analysis. It is filed as ADME, organism-based. The conditions noted are these: in vivo.
For data set [4], the system named is Enterococcus faecium. In words: Antibacterial activity against Enterococcus faecium for 18 to 20 hrs by broth microdilution method. It is filed as functional. (In general: Broth dilution looks for growth in wells or tubes with falling amounts of substance.)
Data set [5] relates to Staphylococcus aureus. In words: Antibacterial activity against methicillin and ciprofloxacin-resistant Staphylococcus aureus 1721 for 18 to 20 hrs by broth microdilution method. It is filed as functional.
In data set [6] the test system is Streptococcus pneumoniae. In words: Antibacterial activity against Streptococcus pneumoniae 402 infected in sc dosed mouse assessed as reduction in 2 log CFU in lung compound administered as BID for 1 day measured 24 hrs after last dose. It is filed as functional.
Data set [7] in a line: Clearance in mouse at 2 mg/kg, iv by LC-MS/MS analysis. The conditions noted are these: in vivo. It is filed as ADME, organism-based.
The test system of data set [8] is Staphylococcus aureus. In words: Antibacterial activity against methicillin-resistant Staphylococcus aureus 1118 for 18 to 20 hrs by broth microdilution method. It is filed as functional.
The subject of data set [9] is Streptococcus pneumoniae. In words: Antibacterial activity against Streptococcus pneumoniae for 18 to 24 hrs by broth microdilution method. It is filed as functional.
The test system of data set [10] is Staphylococcus aureus. In words: Antibacterial activity against methicillin-sensitive Staphylococcus aureus 42 for 18 to 20 hrs by broth microdilution method. It is filed as functional.
In data set [11] the test system is Enterococcus faecalis. In words: Antibacterial activity against Enterococcus faecalis for 18 to 20 hrs by broth microdilution method. It is filed as functional.
The target of data set [12] is DNA gyrase subunit B (Staphylococcus aureus, UniProt P0A0K8). In words: Inhibition of Staphylococcus aureus Gyrase B ATPase activity by fluorescence analysis.
Data set [13] is described as follows: Volume of distribution at steady state in mouse at 2 mg/kg, iv by LC-MS/MS analysis. It is filed as ADME, organism-based. The conditions noted are these: in vivo, read-out: Vdss.
Data set [14] concerns Staphylococcus aureus. In words: Antibacterial activity against Staphylococcus aureus 1118 infected in sc and iv dosed mouse assessed as septicemia compound administered 1 hr post-infection twice for 1 day measured for 7 days. It is filed as functional. To be noted: read-out: PD50.
A short description of data set [15]: Log D of compound at pH 7.4. To be noted: buffer.
Data set [16] in a line: Inhibition of Staphylococcus aureus topoisomerase 4 by fluorescence analysis.

Sequence of DNA gyrase subunit B (P0A0K8 whole entry): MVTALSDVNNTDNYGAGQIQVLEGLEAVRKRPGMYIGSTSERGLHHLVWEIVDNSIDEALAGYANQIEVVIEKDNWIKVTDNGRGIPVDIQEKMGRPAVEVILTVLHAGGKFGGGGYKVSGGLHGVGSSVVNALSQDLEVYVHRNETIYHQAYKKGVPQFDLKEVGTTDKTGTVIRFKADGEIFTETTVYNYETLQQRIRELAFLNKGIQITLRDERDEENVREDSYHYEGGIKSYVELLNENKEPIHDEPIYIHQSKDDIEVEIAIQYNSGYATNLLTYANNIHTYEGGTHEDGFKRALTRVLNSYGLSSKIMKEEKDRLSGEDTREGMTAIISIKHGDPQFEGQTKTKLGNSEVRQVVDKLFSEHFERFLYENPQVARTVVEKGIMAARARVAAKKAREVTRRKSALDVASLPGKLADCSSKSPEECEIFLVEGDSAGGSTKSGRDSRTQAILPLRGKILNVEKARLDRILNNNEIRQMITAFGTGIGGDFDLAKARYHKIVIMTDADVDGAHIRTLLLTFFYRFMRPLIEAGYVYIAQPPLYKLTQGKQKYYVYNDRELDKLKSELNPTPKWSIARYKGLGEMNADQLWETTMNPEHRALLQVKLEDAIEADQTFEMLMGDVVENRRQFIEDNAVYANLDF

What is called half-life is the time needed for the level to fall by half in the phase considered. High values mean slow loss, low ones fast loss. The MIC is the lowest concentration found to suppress growth. A higher MIC goes with a need for much substance. As usually defined, the clearance is the volume of plasma or blood freed of the substance per unit of time. A high value points to efficient removal. The term IC50 denotes the concentration needed to halve the response being measured. A low value points to greater potency in that assay. For the molecule `CCCc1c(OC)ccc2c(-c3cnc(-c4ccc(C(=O)O)c(F)c4)s3)n[nH]c12`, the values for the ED in data set [1] and in data set [6] were 103.7 mg/kg and 60.6 mg/kg, respectively. The molecule further showed a half-life in [2] of 0.31 h. Also, the AUC/dose in data set [3] was 0.893 µg·h/mL/mg/kg. Further, the MIC in data set [4] was found to be 0.03 µg/mL (≈ 0.0729 µM); in data set [5], 0.125 µg/mL (≈ 0.304 µM); in data set [8], 0.125 µg/mL (≈ 0.304 µM); in data set [9], 0.125 µg/mL (≈ 0.304 µM); in data set [10] it was 0.06 µg/mL (≈ 0.146 µM); in data set [11], 0.03 µg/mL (≈ 0.0729 µM). The same molecule came in with a clearance in [7] of 19 mL/min/kg. Further, the IC50 in [12] was 15 nM. Moreover, in data set [13], the Vd stood at 0.32 L/kg.

Broadly, the logD is the decadic logarithm of the distribution of all forms, ionised or not, between an organic phase and buffer at a given pH. High values mean higher lipophilicity, low ones lower lipophilicity. In the case of `CCCc1cccc2c(-c3cnc(-c4ccc(C(=O)O)nc4)s3)n[nH]c12`, the ED50 in data set [14] came out at 1 mg/kg. For the same molecule, the ED in data set [1] and in data set [6] was greater than 25 mg/kg throughout. In addition, the half-life in [2] was 2.1 h. This molecule displayed an AUC/dose in [3] of 0.159 µg·h/mL/mg/kg. Besides, the MIC in [4] worked out at 0.06 µg/mL (≈ 0.165 µM); in data set [5], 0.06 µg/mL (≈ 0.165 µM); in data set [8], 0.06 µg/mL (≈ 0.165 µM); in data set [9], 0.06 µg/mL (≈ 0.165 µM); in [10], 0.06 µg/mL (≈ 0.165 µM); in data set [11] it was 0.03 µg/mL (≈ 0.0823 µM). The molecule also showed a log distribution coefficient (logD) in data set [15] of 1.7. In [7], the clearance was 105 mL/min/kg. For the same molecule, the 50% inhibitory concentration (IC50) in data set [16] worked out at 56 nM; in data set [12], 10 nM. For the same molecule, the Vd in [13] stood at 3.47 L/kg.

Molecule `CCCn1c(=O)ccc2c(-c3cnc(-c4ccc(C(=O)O)nc4)s3)n[nH]c21` yielded a pH-dependent lipophilicity (logD) in data set [15] of 0.9. Moreover, the MIC in data set [9] was 0.06 µg/mL (≈ 0.157 µM); in data set [10], greater than 32 µg/mL. In addition, the IC50 in [16] is 56 nM; in data set [12], less than 8 nM.

In the case of `CCCc1cccc2c(-c3cnc(-c4ccc(C(=O)O)c(F)c4)s3)n[nH]c12`, the ED in data set [1] came out at 97.6 mg/kg; in data set [6], 63 mg/kg. In data set [2], this molecule showed a half-life of 2 h. In data set [3], the AUC/dose is 0.397 µg·h/mL/mg/kg. Further, the MIC came out at 0.06 µg/mL (≈ 0.157 µM) in data set [4]; 0.125 µg/mL (≈ 0.328 µM) in [5]; 0.125 µg/mL (≈ 0.328 µM) in data set [8]; 0.25 µg/mL (≈ 0.655 µM) in [9]; 0.125 µg/mL (≈ 0.328 µM) in data set [10]; 0.06 µg/mL (≈ 0.157 µM) in [11]. In addition, the clearance in [7] was found to be 42 mL/min/kg. The half-maximal inhibitory concentration (IC50) is 1300 nM in data set [16] and less than 8 nM in data set [12]. In addition, the Vd in [13] worked out at 1.7 L/kg.

With `CO[C@@H]1[C@@H](OC(N)=O)[C@@H](O)[C@H](Oc2ccc3c(O)c(NC(=O)c4ccc(O)c(CC=C(C)C)c4)c(=O)oc3c2C)OC1(C)C` [NOVOBIOCIN], the ED50 in data set [14] was 10 mg/kg. The ED in data set [1] and in [6] was greater than 100 mg/kg in each case. The MIC in [8] was 0.125 µg/mL (≈ 0.204 µM); in [9], 2 µg/mL (≈ 3.26 µM).
